Reference: patent US12157746B2, “Tetrahydro-1H-pyrazino[2,1-a]isoindolylquinoline compounds for the treatment of autoimmune disease” (F. HOFFMANN-LA ROCHE AG, priority 2018, dated 2024)

What follows are compounds tested against T1, human TLR9 (Homo sapiens, UniProt Q9NR96) (assay: HEK293-Blue-hTLR-9 cells assay). Details: HEK293-Blue-hTLR9 cells, ODN2006 stimulation, 20 hrs, SEAP reporter; read-out: HEK/hTLR9 IC50.
T1 sequence (Q9NR96 26-1032): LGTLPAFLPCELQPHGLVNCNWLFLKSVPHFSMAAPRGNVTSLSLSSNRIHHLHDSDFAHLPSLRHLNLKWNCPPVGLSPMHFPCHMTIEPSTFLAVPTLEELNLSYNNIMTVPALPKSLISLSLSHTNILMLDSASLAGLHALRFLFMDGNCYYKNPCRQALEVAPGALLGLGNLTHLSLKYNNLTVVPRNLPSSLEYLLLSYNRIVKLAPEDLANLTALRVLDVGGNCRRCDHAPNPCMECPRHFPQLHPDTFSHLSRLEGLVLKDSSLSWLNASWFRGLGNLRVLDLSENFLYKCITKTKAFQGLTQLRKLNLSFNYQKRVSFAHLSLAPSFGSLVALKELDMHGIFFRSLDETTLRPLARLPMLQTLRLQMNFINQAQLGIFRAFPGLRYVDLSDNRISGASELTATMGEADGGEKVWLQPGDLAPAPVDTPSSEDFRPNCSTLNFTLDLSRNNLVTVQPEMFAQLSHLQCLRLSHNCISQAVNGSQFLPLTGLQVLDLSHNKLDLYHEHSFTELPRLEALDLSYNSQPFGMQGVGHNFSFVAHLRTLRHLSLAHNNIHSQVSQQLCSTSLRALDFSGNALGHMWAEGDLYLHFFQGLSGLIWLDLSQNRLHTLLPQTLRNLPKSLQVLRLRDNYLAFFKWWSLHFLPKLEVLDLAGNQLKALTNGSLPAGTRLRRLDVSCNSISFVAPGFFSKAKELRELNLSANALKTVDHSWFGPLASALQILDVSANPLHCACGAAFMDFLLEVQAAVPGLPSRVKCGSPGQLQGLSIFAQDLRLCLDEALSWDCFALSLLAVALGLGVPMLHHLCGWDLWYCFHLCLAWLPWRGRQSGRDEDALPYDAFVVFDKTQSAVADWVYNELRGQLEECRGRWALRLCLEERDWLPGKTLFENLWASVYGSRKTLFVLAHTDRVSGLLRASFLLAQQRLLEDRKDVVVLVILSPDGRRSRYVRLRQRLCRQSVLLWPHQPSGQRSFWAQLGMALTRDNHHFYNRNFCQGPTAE
Format: cell-based
In short: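 Antagonist mode in HEK293-Blue hTLR9 reporter cells (SEAP under NF-κB/AP-1 sites), stimulated with ODN2006 added from a 20 uM solution. Serially diluted compound (1% DMSO final) was incubated 20 hrs at 37° C. Supernatant SEAP was developed with QUANTI-Blue for 2 h at 37° C and read at 620˜655 nm.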

| Structure (SMILES) | IC50 |
| --- | --- |
| [2H]c1ccc2c(N3C[C@@H](C)N4Cc5cc(N6CC7CNCC(C6)O7)ccc5[C@H]4C3)ccc(C#N)c2n1 [Example 93, 5-[(4R,10bS)-4-methyl-8-(9-oxa-3,7-diazabicyclo[3.3.1]nonan-3-yl)-3,4,6,10b-tetrahydro-1H-pyrazino[2,1-a]isoindol-2-yl]-2-deuterio-quinoline-8-carbonitrile] | 69.9 nM |
| C[C@@H]1CN(c2ccc(C#N)c3ncccc23)C[C@@H]2c3ccc(N[C@H]4CNC[C@@H]4F)cc3CN12 [Example 31, 5-[(4R,10bS)-8-[[(3S,4S)-4-fluoropyrrolidin-3-yl]amino]-4-methyl-3,4,6,10b-tetrahydro-1H-pyrazino[2,1-a]isoindol-2-yl]quinoline-8-carbonitrile] | 93.7 nM |
| C[C@@H]1CN(c2ccc(C#N)c3ncccc23)C[C@@H]2c3ccc(N4C[C@H]5NCCO[C@@H]5C4)cc3CN12 [Example 44, 5-[(4R,10bS)-4-methyl-8-[(4aR,7aR)-3,4,4a,5,7,7a-hexahydro-2H-pyrrolo[3,4-b][1,4]oxazin-6-yl]-3,4,6,10b-tetrahydro-1H-pyrazino[2,1-a]isoindol-2-yl]quinoline-8-carbonitrile] | 102 nM |
| C[C@@H]1CN(c2ccc(C#N)c3ncccc23)C[C@@H]2c3ccc(N4CCC(N)(CO)C4)cc3CN12 (stereo partly drawn) [Example 19, 5-[(4R,10bS)-8-[3-amino-3-(hydroxymethyl)pyrrolidin-1-yl]-4-methyl-3,4,6,10b-tetrahydro-1H-pyrazino[2,1-a]isoindol-2-yl]quinoline-8-carbonitrile] | 65.3 nM |
| C[C@@H]1CN(c2ccc(C#N)c3ncccc23)C[C@@H]2c3ccc(N4CCOC[C@@H](N)C4)cc3CN12 [Example 54B, 5-[(4R,10bS)-8-[(6S)-6-amino-1,4-oxazepan-4-yl]-4-methyl-3,4,6,10b-tetrahydro-1H-pyrazino[2,1-a]isoindol-2-yl]quinoline-8-carbonitrile] | 87.3 nM |
| C[C@@H]1CN(c2ccc(C#N)c3ncccc23)C[C@@H]2c3ccc(N4CCOC5(CNC5)C4)cc3CN12 [Example 24, 5-[(4R,10bS)-4-methyl-8-(5-oxa-2,8-diazaspiro[3.5]nonan-8-yl)-3,4,6,10b-tetrahydro-1H-pyrazino[2,1-a]isoindol-2-yl]quinoline-8-carbonitrile] | 90.5 nM |
| CO[C@@H]1CNC[C@H]1Nc1ccc2c(c1)CN1[C@H](C)CN(c3ccc(C#N)c4ncccc34)C[C@H]21 [Example 34, 5-[(4R,10bS)-8-[[(3R,4R)-4-methoxypyrrolidin-3-yl]amino]-4-methyl-3,4,6,10b-tetrahydro-1H-pyrazino[2,1-a]isoindol-2-yl]quinoline-8-carbonitrile] | 66.6 nM |
| C[C@@H]1CN(c2ccc(C#N)n3nccc23)C[C@@H]2c3ccc(N4CCOC[C@H](N)C4)cc3CN12 [Example 101, 4-[(4R,10bS)-8-[(6R)-6-amino-1,4-oxazepan-4-yl]-4-methyl-3,4,6,10b-tetrahydro-1H-pyrazino[2,1-a]isoindol-2-yl]pyrazolo[1,5-a]pyridine-7-carbonitrile] | 165 nM |
| C[C@@H]1CN(c2ccc(C#N)c3ncccc23)C[C@@H]2c3ccc(N[C@H]4CNC[C@H]4F)cc3CN12 [Example 30, 5-[(4R,10bS)-8-[[(3S,4R)-4-fluoropyrrolidin-3-yl]amino]-4-methyl-3,4,6,10b-tetrahydro-1H-pyrazino[2,1-a]isoindol-2-yl]quinoline-8-carbonitrile] | 96.6 nM |
| C[C@@H]1CN(c2ccc(C#N)c3ncccc23)C[C@@H]2c3ccc(N4CCNC[C@@](C)(O)C4)cc3CN12 [Example 55B, 5-[(4R,10bS)-8-[(6R)-6-hydroxy-6-methyl-1,4-diazepan-1-yl]-4-methyl-3,4,6,10b-tetrahydro-1H-pyrazino[2,1-a]isoindol-2-yl]quinoline-8-carbonitrile] | 156 nM |
| C[C@@H]1CN(c2ccc(C#N)c3ncccc23)C[C@@H]2c3ccc(NCCN(C)C)cc3CN12 [Example 26, 5-[(4R,10bS)-8-[2-(dimethylamino)ethylamino]-4-methyl-3,4,6,10b-tetrahydro-1H-pyrazino[2,1-a]isoindol-2-yl]quinoline-8-carbonitrile] | 55.8 nM |
| C[C@@H]1CN(c2ccc(C#N)c3ncccc23)C[C@@H]2c3ccc(NC4CNC4)cc3CN12 [Example 28, 5-[(4R,10S)-8-(azetidin-3-ylamino)-4-methyl-3,4,6,10b-tetrahydro-1H-pyrazino[2,1-a]isoindol-2-yl]quinoline-8-carbonitrile] | 83.4 nM |
| C[C@@H]1CN(c2ccc(C#N)n3nccc23)C[C@@H]2c3ccc(N4C[C@H](N)[C@@H](O)C4)cc3CN12 [Example 111, 4-[(4R,10bS)-8-[(3S,4S)-3-amino-4-hydroxy-pyrrolidin-1-yl]-4-methyl-3,4,6,10b-tetrahydro-1H-pyrazino[2,1-a]isoindol-2-yl]pyrazolo[1,5-a]pyridine-7-carbonitrile] | 38 nM |
| C[C@@H]1CN(c2ccc(C#N)c3ncccc23)C[C@@H]2c3ccc(N4CCNC[C@H](O)C4)cc3CN12 [Example 53A, 5-[(4R,10bS)-8-[(6S)-6-hydroxy-1,4-diazepan-1-yl]-4-methyl-3,4,6,10b-tetrahydro-1H-pyrazino[2,1-a]isoindol-2-yl]quinoline-8-carbonitrile] | 56 nM |
| C[C@@H]1CN(c2ccc(C#N)c3ncccc23)C[C@@H]2c3ccc(N4CC5(CNCCO5)C4)cc3CN12 [Example 35, 5-[(4R,10bS)-4-methyl-8-(5-oxa-2,8-diazaspiro[3.5]nonan-2-yl)-3,4,6,10b-tetrahydro-1H-pyrazino[2,1-a]isoindol-2-yl]quinoline-8-carbonitrile] | 111 nM |
| C[C@@H]1CN(c2ccc(C#N)c3nccnc23)C[C@@H]2c3ccc(N4CCNCC4)cc3CN12 [Example 7, 8-[(4R,10bS)-4-methyl-8-piperazin-1-yl-3,4,6,10b-tetrahydro-1H-pyrazino[2,1-a]isoindol-2-yl]quinoxaline-5-carbonitrile] | 99.2 nM |
| C[C@@H]1CN(c2ccc3c(c2)CN2[C@H](C)CN(c4ccc(C#N)n5nccc45)C[C@H]32)CCN1 [Example 97, 4-[(4R,10bS)-4-methyl-8-[(3R)-3-methylpiperazin-1-yl]-3,4,6,10b-tetrahydro-1H-pyrazino[2,1-a]isoindol-2-yl]pyrazolo[1,5-a]pyridine-7-carbonitrile] | 161 nM |
| C[C@@H]1CN(c2ccc(C#N)c3ncccc23)C[C@@H]2c3ccc(N4CC5(CN(C)C5)C4)cc3CN12 [Example 38, 5-[(4R,10bS)-4-methyl-8-(6-methyl-2,6-diazaspiro[3.3]heptan-2-yl)-3,4,6,10b-tetrahydro-1H-pyrazino[2,1-a]isoindol-2-yl]quinoline-8-carbonitrile] | 66.8 nM |
| C[C@@H]1CN(c2ccc(C#N)c3ncccc23)C[C@@H]2c3ccc(N4CC[C@@H](N)C4)cc3CN12 [Example 20, 5-[(4R,10bS)-8-[(3R)-3-aminopyrrolidin-1-yl]-4-methyl-3,4,6,10b-tetrahydro-1H-pyrazino[2,1-a]isoindol-2-yl]quinoline-8-carbonitrile] | 86.9 nM |
| CO[C@H]1CCN(c2ccc3c(c2)CN2[C@H](C)CN(c4ccc(C#N)n5nccc45)C[C@H]32)C[C@H]1N [Example 106, 4-[(4R,10bS)-8-[(3R,4S)-3-amino-4-methoxy-1-piperidyl]-4-methyl-3,4,6,10b-tetrahydro-1H-pyrazino[2,1-a]isoindol-2-yl]pyrazolo[1,5-a]pyridine-7-carbonitrile] | 135 nM |
| C[C@@H]1CN(c2ccc(C#N)c3ncccc23)CC2c3ccc(N4C[C@H](N)[C@@H](O)C4)cc3CN21 (relative stereo) [Example 21, 5-[(4R,10bS)-8-[trans-3-amino-4-hydroxy-pyrrolidin-1-yl]-4-methyl-3,4,6,10b-tetrahydro-1H-pyrazino[2,1-a]isoindol-2-yl]quinoline-8-carbonitrile] | 56.1 nM |
